Source: US20220267753A1, “RATIONAL THERAPEUTIC TARGETING OF ONCOGENIC IMMUNE SIGNALING STATES IN MYELOID MALIGNANCIES VIA THE UBIQUITIN CONJUGATING ENZYME UBE2N” (CHILDREN'S HOSPITAL MEDICAL CENTER, priority 2019, published 2022)

Key:
HL-60 = test: Cell proliferation MTS assay; type: cell-based; settings: Homo sapiens; HL-60, MTS, 24 hours
Protocol: (§1) AML cell lines (5×10^3 cells/well) were seeded in 96-well plates and grown for 24 to 96 h in serum (10%)-containing medium in the presence or absence of inhibitors at the indicated concentrations. Proliferation was analyzed by means of an MTS assay using the CellTiter 96 Aqueous One Solution Cell Proliferation Assay (Promega, Madison, Wis., USA), according to the manufacturer's instructions. Data are mean with standard deviation from three independent experiments in technical triplicates. For the screening of 160 compounds from the UC library, the cell metabolic activity was assessed at 24 hours of treatment of MOLM-13 cells. Top 15 candidates were re-screened at 2 μM, and the cell metabolic activity was determined at 24 hours of treatment. In certain experiments, cell viability was determined by staining the cells with trypan blue at a 1/2 dilution and counting total number of viable cells upon treatment with UC-764864 or DMSO control. The cells were counted daily for 4 days using an automated cell counter (Countess II FL from Life Technologies). The cell proliferation in primary AMLs in FIG. 9E was performed as follows: 50,000 cells were plated in duplicate in a 96 well plate in IMDM containing 20% heat inactivated FBS plus 10 ng/ml of each SCF, IL3, IL6, TPO, and FLT3. UC-764864 was added at the indicated concentrations and cells were incubated with drug for 3 days, at which point cell viability was measured by MTS according to manufacturer's instructions.

KG-1a = test: Cell proliferation MTS assay; type: cell-based; settings: Homo sapiens, 24 hours
Protocol: as §1

Kasumi-1 = test: Cell proliferation MTS assay; type: cell-based; settings: Homo sapiens; Kasumi-1, MTS, 24 hours
Protocol: as §1

MDS92 = test: Cell proliferation MTS assay; type: cell-based; settings: Homo sapiens, 24 hours
Protocol: as §1

MDSL = test: Cell proliferation MTS assay; type: cell-based; settings: Homo sapiens, 24 hours
Protocol: as §1

MOLM-14 = test: Cell proliferation MTS assay; type: cell-based; settings: Homo sapiens; MOLM-14, MTS, 24 hours
Protocol: as §1

MV4-11 = test: Cell proliferation MTS assay; type: cell-based; settings: Homo sapiens; MV4-11, MTS, 24 hours
Protocol: as §1

NOMO-1 = test: Cell proliferation MTS assay; type: cell-based; settings: Homo sapiens; NOMO-1, MTS, 24 hours
Protocol: as §1

SKM-1 = test: Cell proliferation MTS assay; type: cell-based; settings: Homo sapiens; SKM-1, MTS, 24 hours
Protocol: as §1

THP-1 = test: Cell proliferation MTS assay; type: cell-based; settings: Homo sapiens; THP-1, MTS, 24 hours
Protocol: as §1

MOLM-13 cells = test: Trypan blue viability and Caspase 3 cleavage immunoblot; type: cell-based, human
Protocol: (§2) AML cell lines (5×10^3 cells/well) were seeded in 96-well plates and grown for 24 to 96 h in serum (10%)-containing medium in the presence or absence of inhibitors at the indicated concentrations. Proliferation was analyzed by means of an MTS assay using the CellTiter 96 Aqueous One Solution Cell Proliferation Assay (Promega, Madison, Wis., USA), according to the manufacturer's instructions. Data are mean with standard deviation from three independent experiments in technical triplicates. For the screening of 160 compounds from the UC library, the cell metabolic activity was assessed at 24 hours of treatment of MOLM-13 cells. Top 15 candidates were re-screened at 2 μM, and the cell metabolic activity was determined at 24 hours of treatment. In certain experiments, cell viability was determined by staining the cells with trypan blue at a 1/2 dilution and counting total number of viable cells upon treatment with UC-764864 or DMSO control. The cells were counted daily for 4 days using an automated cell counter (Countess II FL from Life Technologies). […] UC-764864 was added at the indicated concentrations and cells were incubated with drug for 3 days, at which point cell viability was measured by MTS according to manufacturer's instructions. […]

[1] = Microsomal stability (human liver microsomes); type: in vitro ADME
[2] = tested on: patient-derived AML cells; test: Viability (MTS) of patient-derived AML samples (PDX AMLs); type: cell-based, human; settings: hierarchical clustering, MTS 24 h
Protocol: as §2

SMILES: CCc1ccc(C(=O)C=CSc2nc3ccc(C)cc3[nH]2)cc1 [UC-764864, 1-(4-ethylphenyl)-3-[(6-methyl-1H-benzimidazol-2-yl)sulfanyl]prop-2-en-1-one]
- IC50 (HL-60): 4.3 µM
- IC50 (KG-1a): > 10 µM
- IC50 (Kasumi-1): 6.6 µM
- IC50 (MDS92): > 10 µM
- IC50 (MDSL): 5.6 µM
- IC50 (MOLM-14): 0.02 µM
- IC50 (MV4-11): 5 µM
- IC50 (NOMO-1): 6.7 µM
- IC50 (SKM-1): 0.4 µM
- IC50 (THP-1): 2.5 µM
- apoptosis (trypan blue uptake, cleavage of Caspase 3) (MOLM-13 cells): increase in apoptosis
- metabolism in human liver microsomes [1]: readily metabolized
- sensitivity class of the other 20 PDX AMLs ([2]; 20 of 26 PDX AMLs): resistant
- sensitivity class of PDX AMLs JM1, JM7, JM18, JM26, JM30, JM40 ([2]; six of 26 PDX AMLs): sensitive
